Test results published in article PMC11350787, “Antimicrobial Properties and Cytotoxicity of LL-37-Derived Synthetic Peptides to Treat Orthopedic Infections” (Antibiotics, 2024).
Values after ≈ are worked out from the molar mass of the structure shown. Values belong to the molecule of their own block, whether it stands above or below them. Peptide text beside a SMILES is read from it.

Assays:
E. coli ATCC 25922 = assay: microbe, parasite or virus in culture
Source text: (§1) A total of 18 bacterial strains relevant to orthopedic infections were used for microbiological tests, including 8 ATCC (American Type Culture Collection, ATCC, Manassas, VA, USA) and 10 clinical isolates (CI) from the Laboratory of Clinical Chemistry and Microbiology, IRCCS Ospedale Galeazzi–Sant’Ambrogio of Milan (Italy) strain collection. The ATCC strains were used for the first screening (MIC/MBC) of all the AMPs produced, while the clinical isolates were used for further MIC/MBC assays on selected AMPs. Among CI, S. epidermidis GOI1153754-03-14 has been already characterized and used in previous studies. All the strains were stocked at −80°C and working stocks were stored at −20 °C. At the occurrence, the bacteria were resuscitated in Brain Hearth Infusion (BHI, Millipore, Milan, Italy) broth at 37 °C for 18 h from the working stocks.
(§2) To determine the minimum inhibitory concentration (MIC) and the minimum bactericidal concentration (MBC), ISO20776-1 and Clinical and Laboratory Standards Institute guidelines were followed. A commercial synthetic LL-37 (Aurogene, Rome, Italy) was used as the control in the MIC and MBC assays. A stock solution of each AMP was prepared at 600 µg/mL to achieve a final concentration of 300 µg/mL. […] The MIC was determined according to the aforementioned standard guidelines. The MBC was determined by plating 2 µL of culture from each well of the MIC plates on a Tryptic Soy Agar (TSA, Millipore, Milan, Italy) plate and incubated for 24 h at 37 °C. The concentration at which there was no growth was recorded as MBC. Each experiment was carried out in triplicate. Representative MIC and MBC values for vancomycin and gentamicin were assessed to offer a benchmark comparison for the AMPs. Quality control was conducted with Staphylococcus aureus ATCC 29,213 and vancomycin according to EUCAST guidelines.

P. aeruginosa ATCC 27853 = assay: microbe, parasite or virus in culture
Source text: as §1, §2

S. aureus ATCC 25923 = assay: microbe, parasite or virus in culture
Source text: as §1, §2

S. aureus ATCC 43300 = assay: microbe, parasite or virus in culture
Source text: as §1, §2

[1] = system: S. epidermidis GOI1153754-03-14 (CI); assay: microbe, parasite or virus in culture
Source text: as §1, §2

S. aureus ATCC 49230 = assay: microbe, parasite or virus in culture
Source text: as §1, §2

[2] = system: S. epidermidis ATCC 14990; assay: microbe, parasite or virus in culture
Source text: as §1, §2

[3] = system: S. epidermidis ATCC 35984; assay: microbe, parasite or virus in culture
Source text: as §1, §2

E. coli Eco53 (CI) = details: E. coli Eco53 clinical isolate; triplicate
Source text: as §1, §2

E. coli Eco61 (CI) = details: E. coli Eco61 clinical isolate; triplicate
Source text: as §1, §2

E. coli Eco75 (CI) = details: E. coli Eco75 clinical isolate; triplicate
Source text: as §1, §2

P. aeruginosa Pae2 (CI) = details: P. aeruginosa Pae2 clinical isolate; triplicate
Source text: as §1, §2

P. aeruginosa Pae61 (CI) = details: P. aeruginosa Pae61 clinical isolate; triplicate
Source text: as §1, §2

P. aeruginosa Pae82 (CI) = details: P. aeruginosa Pae82 clinical isolate; triplicate
Source text: as §1, §2

S. aureus Sau221 (CI) = details: S. aureus Sau221 clinical isolate; triplicate
Source text: as §1, §2

S. aureus Sau39 (CI) = details: S. aureus Sau39 clinical isolate; triplicate
Source text: as §1, §2

S. aureus Sau89 (CI) = details: S. aureus Sau89 clinical isolate; triplicate
Source text: as §1, §2

- Susceptibility category by MIC (EUCAST clinical breakpoints tables, v. 14) (E. coli ATCC 25922; E. coli 25922): S
- MIC (E. coli ATCC 25922; Escherichia coli, ATCC25922, read-out: Minimum Inhibitory Concentration (MIC)): 0.6 µg/mL (≈ 1.26 µM)
- Susceptibility category by MIC (EUCAST clinical breakpoints tables, v. 14) (P. aeruginosa ATCC 27853; P. aeruginosa 27853): S
- MIC (P. aeruginosa ATCC 27853; Pseudomonas aeruginosa, ATCC27853, read-out: Minimum Inhibitory Concentration (MIC)): 0.6 µg/mL (≈ 1.26 µM)
- Susceptibility category by MIC (EUCAST clinical breakpoints tables, v. 14) (S. aureus ATCC 25923; S. aureus 25923): S
- MIC (S. aureus ATCC 25923; Staphylococcus aureus, ATCC25923, read-out: Minimum Inhibitory Concentration (MIC)): 0.6 µg/mL (≈ 1.26 µM)
- Susceptibility category by MIC (EUCAST clinical breakpoints tables, version 14) (S. aureus ATCC 43300; S. aureus 43,300 as printed in text): S
- MIC (S. aureus ATCC 43300; Staphylococcus aureus, ATCC43300, read-out: Minimum Inhibitory Concentration (MIC)): 0.6 µg/mL (≈ 1.26 µM)
- Susceptibility category by MIC (EUCAST clinical breakpoints tables, v. 14) ([1]; S. epidermidis GOI1153754-03-14): R
- MIC ([1]; Staphylococcus epidermidis, read-out: Minimum Inhibitory Concentration (MIC)): > 20 µg/mL
SMILES: CNC(C)C1CCC(N)C(OC2C(N)CC(N)C(OC3OCC(C)(O)C(NC)C3O)C2O)O1 (stereo not shown) [Gen, gentamicin]
- MBC (E. coli ATCC 25922; Escherichia coli, ATCC25922, 24 h, read-out: Minimum Bactericidal Concentration (MBC)): 2.5 µg/mL (≈ 5.23 µM)
- MBC (P. aeruginosa ATCC 27853; Pseudomonas aeruginosa, ATCC27853, 24 h, read-out: Minimum Bactericidal Concentration (MBC)): 2.5 µg/mL (≈ 5.23 µM)
- MBC (S. aureus ATCC 25923; Staphylococcus aureus, ATCC25923, 24 h, read-out: Minimum Bactericidal Concentration (MBC)): 2.5 µg/mL (≈ 5.23 µM)
- MBC (S. aureus ATCC 43300; Staphylococcus aureus, ATCC43300, 24 h, read-out: Minimum Bactericidal Concentration (MBC)): 2.5 µg/mL (≈ 5.23 µM)
- MBC ([1]; Staphylococcus epidermidis, read-out: Minimum Bactericidal Concentration (MBC)): > 20 µg/mL

- Minimum Inhibitory Concentration (MIC) (E. coli ATCC 25922; ATCC 25922, 18 h): 75.00 µg/mL
- Minimum Inhibitory Concentration (MIC) (P. aeruginosa ATCC 27853; ATCC 27853, 18 h): 150.00 µg/mL
- Minimum Inhibitory Concentration (MIC) (S. aureus ATCC 25923; ATCC 25923, 18 h): 150.00 µg/mL
- Minimum Inhibitory Concentration (MIC) (S. aureus ATCC 43300; ATCC 43300, 18 h): 150.00 µg/mL
- Minimum Inhibitory Concentration (MIC) (S. aureus ATCC 49230; ATCC 49230, 18 h): 75.00 µg/mL
- Minimum Inhibitory Concentration (MIC) ([2]; ATCC 14990, 18 h): 18.75 µg/mL
- Minimum Inhibitory Concentration (MIC) ([3]; ATCC 35984, 18 h): 37.50 µg/mL
SMILES: CC[C@H](C)[C@H](NC(=O)[C@H](CCCCN)NC(=O)[C@H](CCC(=O)O)NC(=O)[C@H](CCCCN)NC(=O)[C@@H](N)CO)C(=O)NCC(=O)N[C@@H](CCCCN)C(=O)N[C@@H](CCC(=O)O)C(=O)N[C@@H](Cc1ccccc1)C(=O)N[C@@H](CCCCN)C(=O)N[C@@H](CCCNC(=N)N)C(=O)N[C@H](C(=O)N[C@H](C(=O)N[C@@H](CCC(N)=O)C(=O)N[C@@H](CCCNC(=N)N)C(=O)N[C@H](C(=O)N[C@@H](CCCCN)C(=O)N[C@@H](CC(=O)O)C(=O)N[C@@H](Cc1ccccc1)C(=O)N[C@@H](CC(C)C)C(=O)N[C@@H](CCCNC(=N)N)C(=O)N[C@@H](CC(N)=O)C(=O)N[C@@H](CC(C)C)C(=O)N[C@H](C(N)=O)C(C)C)[C@@H](C)CC)C(C)C)[C@@H](C)CC [SK-24] (H-SKEKIGKEFKRIVQRIKDFLRNLV-NH2)
- Minimum Bactericidal Concentration (MBC) (E. coli ATCC 25922; ATCC 25922, 24 h): 75.00 µg/mL
- Minimum Bactericidal Concentration (MBC) (P. aeruginosa ATCC 27853; ATCC 27853, 24 h): 150.00 µg/mL
- Minimum Bactericidal Concentration (MBC) (S. aureus ATCC 25923; ATCC 25923, 24 h): >300.00 µg/mL
- Minimum Bactericidal Concentration (MBC) (S. aureus ATCC 43300; ATCC 43300, 24 h): >300.00 µg/mL
- Minimum Bactericidal Concentration (MBC) (S. aureus ATCC 49230; ATCC 49230, 24 h): >300.00 µg/mL
- Minimum Bactericidal Concentration (MBC) ([2]; ATCC 14990, 24 h): 150.00 µg/mL
- Minimum Bactericidal Concentration (MBC) ([3]; ATCC 35984, 24 h): 300.00 µg/mL

SMILES: CC[C@H](C)[C@H](NC(=O)[C@H](CCCCN)NC(=O)[C@H](CCC(=O)O)NC(=O)[C@H](CCCCN)NC(=O)[C@H](CO)NC(=O)[C@H](CCCCN)NC(=O)[C@H](CCCNC(=N)N)NC(=O)[C@H](Cc1ccccc1)NC(=O)[C@H](Cc1ccccc1)NC(=O)[C@H](CC(=O)O)NC(=O)CNC(=O)[C@H](CC(C)C)NC(=O)[C@@H](N)CC(C)C)C(=O)NCC(=O)N[C@@H](CCCCN)C(=O)N[C@@H](CCC(=O)O)C(=O)N[C@@H](Cc1ccccc1)C(=O)N[C@@H](CCCCN)C(=O)N[C@@H](CCCNC(=N)N)C(=O)N[C@H](C(=O)N[C@H](C(=O)N[C@@H](CCC(N)=O)C(=O)N[C@@H](CCCNC(=N)N)C(=O)N[C@H](C(=O)N[C@@H](CCCCN)C(=O)N[C@@H](CC(=O)O)C(=O)N[C@@H](Cc1ccccc1)C(=O)N[C@@H](CC(C)C)C(=O)N[C@@H](CCCNC(=N)N)C(=O)N[C@@H](CC(N)=O)C(=O)N[C@@H](CC(C)C)C(=O)N[C@H](C(=O)N1CCC[C@H]1C(=O)N[C@@H](CCCNC(=N)N)C(=O)N[C@H](C(=O)N[C@@H](CCC(=O)O)C(=O)N[C@@H](CO)C(=O)O)[C@@H](C)O)C(C)C)[C@@H](C)CC)C(C)C)[C@@H](C)CC [cLL-37, reference compound]
- Minimum Bactericidal Concentration (MBC) (E. coli ATCC 25922; E. coli 25922, plated on TSA, 24 h 37 °C, triplicate): 75.00 µg/mL
- Minimum Inhibitory Concentration (MIC) (P. aeruginosa ATCC 27853; P. aeruginosa 27853, ISO20776-1/CLSI, triplicate): 37.50 µg/mL
- Minimum Bactericidal Concentration (MBC) (P. aeruginosa ATCC 27853; P. aeruginosa 27853, plated on TSA, 24 h 37 °C, triplicate): 75.00 µg/mL
- Minimum Inhibitory Concentration (MIC) (S. aureus ATCC 25923; S. aureus 25923, ISO20776-1/CLSI, triplicate): 37.50 µg/mL
- Minimum Bactericidal Concentration (MBC) (S. aureus ATCC 25923; S. aureus 25923, plated on TSA, 24 h 37 °C, triplicate): >300.00 µg/mL
- Minimum Inhibitory Concentration (MIC) (S. aureus ATCC 43300; S. aureus 43300, ISO20776-1/CLSI, triplicate): 75.00 µg/mL
- Minimum Bactericidal Concentration (MBC) (S. aureus ATCC 43300; S. aureus 43300, plated on TSA, 24 h 37 °C, triplicate): >300.00 µg/mL
- Minimum Inhibitory Concentration (MIC) (S. aureus ATCC 49230; S. aureus 49230, ISO20776-1/CLSI, triplicate): 75.00 µg/mL
- Minimum Bactericidal Concentration (MBC) (S. aureus ATCC 49230; S. aureus 49230, plated on TSA, 24 h 37 °C, triplicate): >300.00 µg/mL
- Minimum Bactericidal Concentration (MBC) ([2]; S. epidermidis 14990, 2 µL from MIC wells plated on TSA, 24 h 37 °C, triplicate): 75.00 µg/mL
- Minimum Inhibitory Concentration (MIC) ([2]; S. epidermidis 14990, ISO20776-1/CLSI, triplicate): 75.00 µg/mL
- Minimum Inhibitory Concentration (MIC) ([3]; S. epidermidis 35984, ISO20776-1/CLSI, triplicate): 9.38 µg/mL
- Minimum Bactericidal Concentration (MBC) ([3]; S. epidermidis 35984, plated on TSA, 24 h 37 °C, triplicate): >300.00 µg/mL
- Minimum Bactericidal Concentration (MBC) ([1]; S. epidermidis GOI1153754-03-14 clinical isolate, triplicate): >300.00 µg/mL
- Minimum Bactericidal Concentration (MBC) (E. coli Eco53 (CI)): 300.00 µg/mL
- Minimum Inhibitory Concentration (MIC) (E. coli Eco53 (CI)): 37.50 µg/mL
- Minimum Bactericidal Concentration (MBC) (E. coli Eco61 (CI)): 75.00 µg/mL
- Minimum Inhibitory Concentration (MIC) (E. coli Eco61 (CI)): 37.50 µg/mL
- Minimum Bactericidal Concentration (MBC) (E. coli Eco75 (CI)): 300.00 µg/mL
- Minimum Inhibitory Concentration (MIC) (E. coli Eco75 (CI)): 37.50 µg/mL
- Minimum Bactericidal Concentration (MBC) (P. aeruginosa Pae2 (CI)): 75.00 µg/mL
- Minimum Inhibitory Concentration (MIC) (P. aeruginosa Pae2 (CI)): 75.00 µg/mL
- Minimum Bactericidal Concentration (MBC) (P. aeruginosa Pae61 (CI)): 150.00 µg/mL
- Minimum Inhibitory Concentration (MIC) (P. aeruginosa Pae61 (CI)): 37.50 µg/mL
- Minimum Bactericidal Concentration (MBC) (P. aeruginosa Pae82 (CI)): 75.00 µg/mL
- Minimum Inhibitory Concentration (MIC) (P. aeruginosa Pae82 (CI)): 37.50 µg/mL
- Minimum Bactericidal Concentration (MBC) (S. aureus Sau221 (CI)): >300.00 µg/mL
- Minimum Inhibitory Concentration (MIC) (S. aureus Sau221 (CI)): >300.00 µg/mL
- Minimum Bactericidal Concentration (MBC) (S. aureus Sau39 (CI)): >300.00 µg/mL
- Minimum Inhibitory Concentration (MIC) (S. aureus Sau39 (CI)): 150.00 µg/mL
- Minimum Bactericidal Concentration (MBC) (S. aureus Sau89 (CI)): >300.00 µg/mL
- Minimum Inhibitory Concentration (MIC) (S. aureus Sau89 (CI)): >300.00 µg/mL
